# Data from patent US10681909B2, “Herbicidal triazoles” (FMC Corporation, priority 2014, dated 2020).
# What was measured:
# [1] = tested on: foxtail, giant; experiment: Test C preemergence; format: in vivo, Setaria faberii; settings: for Plant response rating (scale of 0 to 100 where 0 is no effect and 100 is complete control): Foxtail, Giant, preemergence; for Foxtail, Giant plant response rating (0 to 100): Preemergence, visual rating after 13 to 15 d
# Excerpt: (§1) Seeds of plant species selected from blackgrass (Alopecurus myosuroides), ryegrass, Italian (Italian ryegrass, Lolium multiflorum), wheat (winter wheat, Triticum aestivum), galium (catchweed bedstraw, Galium aparine), corn (Zea mays), crabgrass, large (large crabgrass, Digitaria sanguinalis), foxtail, giant, (giant foxtail, Setaria faberii), johnsongrass (Sorghum halepense), lambsquarters (Chenopodium album), morningglory (Ipomoea coccinea), nutsedge, yellow (yellow nutsedge, Cyperus esculentus), pigweed (Amaranthus retroflexus), ragweed (common ragweed, Ambrosia elatior), soybean (Glycine max), barnyardgrass (Echinochloa crus-galli), oilseed rape (Brassica napus), waterhemp (common waterhemp, Amaranthus rudis), and velvetleaf (Abutilon theophrasti) were planted into a blend of loam soil and sand and treated preemergence with test chemicals formulated in a non-phytotoxic solvent mixture which included a surfactant. At the same time, plants selected from these crop and weed species and also chickweed (common chickweed, Stellaria media), oat, wild (wild oat, Avena fatua), and kochia (Kochia scoparia), were planted in pots containing Sunshine Redi-Earth® planting medium comprising spaghnum peat moss, vermiculite, starter nutrients and dolomitic limestone and treated with postemergence applications of test chemicals formulated in the same manner. Plants ranged in height from 2 to 18 cm (1- to 4-leaf stage) for postemergence treatments. […] A dash (-) response means no test result.
# [2] = tested on: pigweed; experiment: Test C preemergence; format: in vivo, Amaranthus retroflexus; settings: for Plant response rating (scale of 0 to 100 where 0 is no effect and 100 is complete control): Pigweed, preemergence; for Pigweed plant response rating (0 to 100): Preemergence, visual rating after 13 to 15 d
# Excerpt: as §1
# [3] = tested on: barley, winter; experiment: Test D preemergence; format: in vivo, Hordeum vulgare; settings: for Plant response rating: Barley, Winter: scale 0 to 100
# Excerpt: (§2) Seeds of plant species selected from bluegrass (annual bluegrass, Poa annua), blackgrass (Alopecurus myosuroides), canarygrass (Phalaris minor), chickweed (common chickweed, Stellaria media), galium (catchweed bedstraw, Galium aparine), bromegrass, down (downy bromegrass, Bromus tectorum), Russian thistle (Salsola kali), field poppy (Papaver rhoeas), field violet (Viola arvensis), foxtail, green (green foxtail, Setaria viridis), deadnettle (henbit deadnettle, Lamium amplexicaule), ryegrass, Ital. (Italian ryegrass, Lolium multiflorum), kochia (Kochia scoparia), lambsquarters (Chenopodium album), oilseed rape (Brassica napus), pigweed (Amaranthus retroflexus), chamomile (scentless chamomile, Matricaria inodora), speedwell (bird's-eye speedwell, Veronica persica), barley, spring (spring barley, Hordeum vulgare), wheat, spring (spring wheat, Triticum aestivum), buckwheat, wild (wild buckwheat, Polygonum convolvulus), wild mustard (Sinapis arvensis), oat, wild (wild oat, Avena fatua), radish, wild (wild radish, Raphanus raphanistrum), […]), barley, winter (winter barley, Hordeum vulgare), and wheat, winter (winter wheat, Triticum aestivum) were planted into a silt loam soil and treated preemergence with test chemicals formulated in a non-phytotoxic solvent mixture which included a surfactant. At the same time, these species were planted in pots containing Sunshine Redi-Earth® planting medium comprising spaghnum peat moss, vermiculite, starter nutrients and dolomitic limestone and treated with postemergence applications of the test chemicals formulated in the same manner. Plants ranged in height from 2 to 18 cm (1- to 4-leaf stage). Treated plants and controls were maintained in a controlled growth environment for 14 to 21 d after which time all species were compared to controls and visually evaluated. […] A dash (-) response means no test result.
# [4] = tested on: barley, spring; experiment: Test D preemergence; format: in vivo, Hordeum vulgare; settings: for Plant response rating: Barley, Spring: scale 0 to 100
# Excerpt: as §2
# [5] = tested on: ragweed; experiment: Test A postemergence; format: in vivo, Ambrosia elatior; settings: 0 to 100 scale (0 no effect, 100 complete control), approx. 10 d
# Outline: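 Visual injury score, 0 (no effect) to 100 (complete control), taken about 10 d after treatment against untreated greenhouse controls. Chemicals formulated in non-phytotoxic solvent plus surfactant; preemergence by directed soil spray onto sown loam/sand, postemergence onto one- to two-leaf plants.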
# [6] = tested on: wild mustard; experiment: Test D preemergence; format: in vivo, Sinapis arvensis; settings: for Plant response rating: Mustard, Wild: scale 0 to 100
# Excerpt: as §2
# [7] = 16 g ai/ha, 0 is no effect, 100 is complete control
smiles,measurement,setting,value
"CCOc1nc(-c2ccc(C(F)(F)F)cc2)nn1Cc1ccnc(C(F)(F)F)c1 [Compound 35, 4-[[5-ethoxy-3-[4-(trifluoromethyl)phenyl]-1H-1,2,4-triazole-1-yl]methyl]-2-(trifluoromethyl)pyridine]",Plant response rating (scale of 0 to 100 where 0 is no effect and 100 is complete control),[1]; 125 g ai/ha,100
same,Plant response rating (scale of 0 to 100 where 0 is no effect and 100 is complete control),[1]; 250 g ai/ha,100
same,"Foxtail, Giant plant response rating (0 to 100)",[1]; 31 g ai/ha,98
same,"Foxtail, Giant plant response rating (0 to 100)",[1]; 62 g ai/ha,100
same,Plant response rating (scale of 0 to 100 where 0 is no effect and 100 is complete control),[2]; 125 g ai/ha,100
same,Plant response rating (scale of 0 to 100 where 0 is no effect and 100 is complete control),[2]; 250 g ai/ha,100
same,Pigweed plant response rating (0 to 100),[2]; 31 g ai/ha,98
same,Pigweed plant response rating (0 to 100),[2]; 62 g ai/ha,100
same,"Plant response rating (0 to 100), Barley, Winter",[3]; [7],25
same,"Plant response rating: Barley, Winter",[3]; 31 g ai/ha,40
same,"Plant response rating: Barley, Winter",[3]; 62 g ai/ha,40
same,"Plant response rating: Barley, Winter",[3]; 125 g ai/ha,50
same,"Plant response rating (0 to 100), Barley, Spring",[4]; [7],30
same,"Plant response rating: Barley, Spring",[4]; 31 g ai/ha,40
same,"Plant response rating: Barley, Spring",[4]; 62 g ai/ha,40
same,"Plant response rating: Barley, Spring",[4]; 125 g ai/ha,50
same,"Plant response rating, Ragweed",[5]; 31 g ai/ha,20
same,"Plant response rating, Ragweed",[5]; 125 g ai/ha,60
same,"Plant response rating (0 to 100), Mustard, Wild",[6]; [7],70
same,"Plant response rating: Mustard, Wild",[6]; 62 g ai/ha,100
same,"Plant response rating: Mustard, Wild",[6]; 125 g ai/ha,100
